# Laboratory results reported in patent publication US5599926.
# Conditions: from C=CCOc1ccc(C[C@H](N)C(=O)NCc2cc(CSc3cc(SCc4cc(CNC(=O)[C@@H](N)Cc5ccc(OCC=C)cc5)cc(C(=O)Oc5c(F)c(F)c(F)c(F)c5F)c4)cc(SCc4cc(CNC(=O)[C@@H](N)Cc5ccc(OCC=C)cc5)cc(C(=O)Oc5c(F)c(F)c(F)c(F)c5F)c4)c3)cc(C(=O)Oc3c(F)c(F)c(F)c(F)c3F)c2)cc1; amide bond; N,N-diisopropylethylamine (pentafluorophenyl ester); THF; 2.3 mM; 25.0 °C; 45.0 h
compound,measurement,value
C=CCOc1ccc(C[C@@H]2NC(=O)c3cc4cc(c3)CSc3cc5cc(c3)SCc3cc(cc(c3)C(=O)N[C@@H](Cc3ccc(OCC=C)cc3)C(=O)NC4)CNC(=O)[C@H](Cc3ccc(OCC=C)cc3)NC(=O)c3cc(cc(c3)CS5)CNC2=O)cc1,"ring closure, yield of all isomers",65%
